Converted amounts (≈) assume the structure as drawn. “And” between values parts separate entries of the source, which are not always exact repeats. Equal values may be shown once. Read-outs that look alike come from different tables or passages of the source.
What was measured:
P. berghei = assay: Murine P. berghei model, oral 1x or 4x 100 mg/kg; assay type: in vivo; details: for Parasitized RBC in one drop of blood (made by microscope): individual animals
Procedure: EXAMPLE. CEM-101 activity in infected mice.
EXAMPLE. CEM-101 was tested in the murine P. berghei model as described by Vennerstrom et al. Nature 430(7002):900-904 (2004), the disclosure of which is incorporated herein by reference.

[1] = Systemic toxicity in mice with SC or PO dosing; assay type: in vivo; details: SC or PO dosing as high as 160 mg/kg/d×3 days
Procedure: For blood stage infections, the minimum curative SC dose was 40 mg/kg/d×3 days, while 80 mg/kg/d×3 was the minimum active dose for PO route. In the P. berghei causal mouse model, CEM-101 was curative at 40 mg/kg/d×3 days with SC or PO dosing.

[2] = tested on: luciferase expressing P. berghei liver stage parasites; assay: Liver stage activity by in vivo imaging; details: mice, PO dosing at 40 mg/kg/d×3 days
Procedure: Efficacy was measured by number of mice with delayed parasitemia and mice that were malaria free at day 31. Antimalarial liver stage activity was assessed in mice infected with luciferase expressing P. berghei parasites using an in vivo imaging system.

[3] = tested on: replicating M. tuberculosis; assay: Aero RLU (Relative Light Units under aerobic conditions), replicating culture; assay type: cell-based; details: two experiments
M. avium complex = assay: Broth dilution MIC versus M. avium complex isolates; assay type: cell-based, Mycobacterium avium; details: Mycobacterium avium, read-out: MIC
[4] = tested on: MTb growing inside macrophages; assay: MTb inside infected macrophages, ATP readout; assay type: cell-based, M. tuberculosis; details: 1 μg/mL
P. falciparum NF54 = assay: In vitro P. falciparum 72 hour assay (48+24); assay type: cell-based; details: Plasmodium falciparum, NF54, 72 h assay (48+24)
Procedure: EXAMPLE. In vitro and in vivo activity against different species of Plasmodium parasites. CEM-101 was tested against intra-erythrocytic forms of P. falciparum derived from asynchronous cultures of the strain […]. […] CEM-101 was followed for 120 h. CEM-101 has delayed activity when compared to other agents.
In vitro P. falciparum data for CEM-101 in the 72 h Assay (48+24)

**Q.** Which “outcome in murine malarial infection model” value (P. berghei; mice) does the source give for CC[C@H]1OC(=O)[C@@](C)(F)C(=O)[C@H](C)[C@@H](O[C@@H]2O[C@H](C)C[C@H](N(C)C)[C@H]2O)[C@](C)(OC)C[C@@H](C)C(=O)[C@H](C)[C@H]2N(CCCCn3cc(-c4cccc(N)c4)nn3)C(=O)O[C@]12C [CEM-101, solithromycin] here?
**A.** Its value is “curative”.

**Q.** What about the “Activity (%)” value (P. berghei; mice, 1 × 100 mg/kg oral, DMSO) of the same molecule?
**A.** The value was 80.05%.

**Q.** What about the “Survival” value (P. berghei; mice, 1 × 100 mg/kg oral, DMSO) of the same molecule?
**A.** Its value is 15.7 days.

**Q.** And the “Activity (%)” value (P. berghei; mice, 1 × 100 mg/kg oral, HPMC)?
**A.** The value was 81.45%.

**Q.** What about the “Survival” value (P. berghei; mice, 1 × 100 mg/kg oral, HPMC) of the same molecule?
**A.** The value was 12.7 days.

**Q.** What about the “Activity (%)” value (P. berghei; mice, 4 × 100 mg/kg oral, DMSO) of the same molecule?
**A.** Its value is 99.79%.

**Q.** And the “Cure (%)” value (P. berghei; mice, 4 × 100 mg/kg oral, DMSO)?
**A.** The value was 100%.

**Q.** And the “Survival” value (P. berghei; mice, 4 × 100 mg/kg oral, DMSO, survivors sacrificed on Day 31)?
**A.** The value was 30.0 days.

**Q.** What about the “Activity (%)” value (P. berghei; mice, 4 × 100 mg/kg oral, HPMC) of the same molecule?
**A.** Its value is 99.79%.

**Q.** And the “Cure (%)” value (P. berghei; mice, 4 × 100 mg/kg oral, HPMC)?
**A.** Its value is 100%.

**Q.** And the “Survival” value (P. berghei; mice, 4 × 100 mg/kg oral, HPMC, survivors sacrificed on Day 31)?
**A.** Its value is 30.0 days.

**Q.** And the “blood from treated animals parasite free or not” value (P. berghei; mice, 4× 100 mg/kg p.o.)?
**A.** The value was “parasite free”.

**Q.** What about the “Visual Observation (parasites in blood)” value (P. berghei; mice, 4× 100 mg/kg p.o., DMSO) of the same molecule?
**A.** Its value is “neg”.

**Q.** What about the “Parasitized RBC in one drop of blood (made by microscope)” value (P. berghei; mice, 4× 100 mg/kg p.o., DMSO) of the same molecule?
**A.** The value was 0.

**Q.** What about the “Visual Observation (parasites in blood)” value (P. berghei; mice, 4× 100 mg/kg p.o., HPMC) of the same molecule?
**A.** The value was “neg”.

**Q.** What about the “Parasitized RBC in one drop of blood (made by microscope)” value (P. berghei; mice, 4× 100 mg/kg p.o., HPMC) of the same molecule?
**A.** Its value is 0.

**Q.** What about the outcome of treatment (P. berghei; mice, P. berghei strain ANKA, 4×100 mg/kg, cure = survival on Day 30 with no detectable parasites) of the same molecule?
**A.** The outcome of treatment was “cure”.

**Q.** What about the “activity compared with Artesunate in the mouse model” value (P. berghei; murine P. berghei model (Vennerstrom et al.)) of the same molecule?
**A.** The value was “equivalent activity to Artesunate”.

**Q.** What about the systemic toxicity [1] of the same molecule?
**A.** The systemic toxicity was “No systemic toxicity”.

**Q.** What about the “antimalarial activity against liver stage parasites by in vivo imaging” value [2] of the same molecule?
**A.** The value was “No demonstrable antimalarial activity”.

**Q.** What about the “Aero RLU” value [3] of the same molecule?
**A.** Its value is 7.19 µM and 6.95 µM.

**Q.** And the MIC (M. avium complex; isolate MAC 101, clarithromycin susceptible)?
**A.** The MIC was 0.25 µg/mL (≈ 0.296 µM).

**Q.** And the MIC (M. avium complex; isolate MAC 103, clarithromycin resistant)?
**A.** Its MIC is 8 µg/mL (≈ 9.47 µM).

**Q.** And the MIC (M. avium complex; isolate MAC 108, clarithromycin resistant)?
**A.** The MIC was 8 µg/mL (≈ 9.47 µM).

**Q.** And the MIC (M. avium complex; isolate MAC 110, clarithromycin resistant)?
**A.** Its MIC is 8 µg/mL (≈ 9.47 µM).

**Q.** What about the MIC (M. avium complex; isolate MAC 216, clarithromycin resistant) of the same molecule?
**A.** The MIC was 8 µg/mL (≈ 9.47 µM).

**Q.** What about the MIC (M. avium complex; isolate MAC 224, clarithromycin resistant) of the same molecule?
**A.** The MIC was 8 µg/mL (≈ 9.47 µM).

**Q.** What about the MIC (M. avium complex; isolate MAC 309, clarithromycin resistant) of the same molecule?
**A.** Its MIC is 8 µg/mL (≈ 9.47 µM).

**Q.** What about the MIC (M. avium complex; isolate MAC 320, clarithromycin resistant) of the same molecule?
**A.** Its MIC is 8 µg/mL (≈ 9.47 µM).

**Q.** And the MIC (M. avium complex; isolate MAC 621, clarithromycin resistant)?
**A.** Its MIC is 16 µg/mL (≈ 18.9 µM).

**Q.** And the MIC (M. avium complex; isolate MAC 623, clarithromycin resistant)?
**A.** Its MIC is 16 µg/mL (≈ 18.9 µM).

**Q.** And the MIC (M. avium complex; isolate MAC 625, clarithromycin resistant)?
**A.** The MIC was 8 µg/mL (≈ 9.47 µM).

**Q.** What about the MIC (M. avium complex; isolate MAC 643, clarithromycin resistant) of the same molecule?
**A.** Its MIC is 8 µg/mL (≈ 9.47 µM).

**Q.** And the MIC (M. avium complex; isolate MAC 1408, clarithromycin susceptible)?
**A.** Its MIC is 0.25 µg/mL (≈ 0.296 µM).

**Q.** And the MIC (M. avium complex; isolate MAC 3404.4, clarithromycin susceptible)?
**A.** The MIC was 0.125 µg/mL (≈ 0.148 µM).

**Q.** And the MIC (M. avium complex; isolate MAC 9141, clarithromycin susceptible)?
**A.** The MIC was 1 µg/mL (≈ 1.18 µM).

**Q.** And the MIC (M. avium complex; isolate MAC FAR, clarithromycin susceptible)?
**A.** The MIC was 0.125 µg/mL (≈ 0.148 µM).

**Q.** And the MIC (M. avium complex; isolate MAC GRL, clarithromycin susceptible)?
**A.** The MIC was 8 µg/mL (≈ 9.47 µM).

**Q.** And the MIC (M. avium complex; isolate MAC KAL, clarithromycin susceptible)?
**A.** The MIC was 16 µg/mL (≈ 18.9 µM).

**Q.** And the MIC (M. avium complex; isolate MAC KZL, clarithromycin susceptible)?
**A.** The MIC was 8 µg/mL (≈ 9.47 µM).

**Q.** And the MIC (M. avium complex; isolate MAC LPR (control strain))?
**A.** Its MIC is 8 µg/mL (≈ 9.47 µM).

**Q.** And the MIC (M. avium complex; isolate MAC Pry, clarithromycin resistant)?
**A.** The MIC was 8 µg/mL (≈ 9.47 µM).

**Q.** And the MIC (M. avium complex; isolate MAC SMT, clarithromycin susceptible)?
**A.** The MIC was 0.125 µg/mL (≈ 0.148 µM).

**Q.** And the MIC (M. avium complex; isolate MAC TEL, clarithromycin susceptible)?
**A.** Its MIC is 8 µg/mL (≈ 9.47 µM).

**Q.** What about the MIC (M. avium complex; isolate MAC TRY, clarithromycin susceptible) of the same molecule?
**A.** The MIC was 8 µg/mL (≈ 9.47 µM).

**Q.** What about the “decrease in ATP of MTb released from infected treated cells” value [4] of the same molecule?
**A.** The value was 10 fold.

**Q.** What about the IC50 (P. falciparum NF54; read-out: IC50 NF54 TEST 1) of the same molecule?
**A.** Its IC50 is 0.919 µg/mL (≈ 1.09 µM).

**Q.** And the IC50 (P. falciparum NF54; read-out: IC50 NF54 TEST 2)?
**A.** The IC50 was 1.54 µg/mL (≈ 1.82 µM).
